In PMC11425824 (ACS Omega, 2024):
Each block holds one compound with its values, some of them ahead of it.

Assays:
CDK1 = CDK1 (Homo sapiens, UniProt P06493); test: In vitro CDK1 kinase assay; assay type: biochemical
[1] = cited from earlier work
primary hepatocytes = conditions: cited from earlier work
[2] = cited from earlier work; remark: listed apart in the source

CDK1, sequence (P20248 whole entry): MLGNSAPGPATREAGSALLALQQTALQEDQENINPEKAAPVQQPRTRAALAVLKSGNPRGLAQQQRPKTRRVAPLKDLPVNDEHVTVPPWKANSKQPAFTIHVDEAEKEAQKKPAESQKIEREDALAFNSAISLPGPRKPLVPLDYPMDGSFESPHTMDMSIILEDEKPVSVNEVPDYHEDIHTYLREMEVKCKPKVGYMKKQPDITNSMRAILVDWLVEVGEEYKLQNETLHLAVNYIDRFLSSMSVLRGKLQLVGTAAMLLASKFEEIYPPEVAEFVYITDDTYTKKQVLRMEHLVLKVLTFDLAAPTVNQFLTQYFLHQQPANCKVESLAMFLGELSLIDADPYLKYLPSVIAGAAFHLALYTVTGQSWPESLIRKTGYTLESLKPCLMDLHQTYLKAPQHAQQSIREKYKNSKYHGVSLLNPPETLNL
CDK1, sequence (P06493 whole entry): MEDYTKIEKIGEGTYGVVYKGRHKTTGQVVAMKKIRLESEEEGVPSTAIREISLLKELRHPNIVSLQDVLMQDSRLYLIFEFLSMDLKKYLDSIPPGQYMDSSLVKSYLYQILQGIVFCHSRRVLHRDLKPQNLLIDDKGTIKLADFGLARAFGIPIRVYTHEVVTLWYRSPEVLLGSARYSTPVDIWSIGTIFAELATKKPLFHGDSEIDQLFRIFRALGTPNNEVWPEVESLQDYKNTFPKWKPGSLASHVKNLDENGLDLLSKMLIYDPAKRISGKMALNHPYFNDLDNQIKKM

SMILES: CC(C)OC(=O)[C@H](C)N[P@](=O)(CO[C@H](C)Cn1cnc2c(N)ncnc21)Oc1ccccc1 [DB_1, tenofovir alafenamide]
- IC50 (CDK1): 2.82 µM
- Cytotoxicity profile [1]: minimal cytotoxic effects
- Mitochondrial toxicity [1]: low potential for mitochondrial toxicity

- IC50 (CDK1): 4.37 µM
SMILES: CCO[C@@H](Cc1ccc(OCCc2ccc(OS(C)(=O)=O)cc2)cc1)C(=O)O [DB_6, tesaglitazar]
- Toxicity to primary hepatocytes (primary hepatocytes): no significant toxicity

- IC50 (CDK1): 5.94 µM
SMILES: Cc1cc2cc(Oc3ccnc(Nc4cccc(CS(=O)(=O)NCCN(C)C)c4)n3)ccc2[nH]1 [DB_7, Surufatinib]

- CDK1 activity (CDK1; 1 μM): around 20%
- CDK1 inhibition (CDK1; higher concentrations (10 and 100 μM)): 100%
SMILES: O=C1NC(=NCc2cccs2)S/C1=C\c1ccc2ncccc2c1 [RO-3306]
- Clearance from the blood plasma [2]: rapid clearance
